From publication PMC12287315 (Nature Communications, 2025) come the findings set out here.

For test [1], the target named is T1, GPR139 (Homo sapiens, UniProt Q6DWJ6).
T1 sequence (Q6DWJ6 1-353): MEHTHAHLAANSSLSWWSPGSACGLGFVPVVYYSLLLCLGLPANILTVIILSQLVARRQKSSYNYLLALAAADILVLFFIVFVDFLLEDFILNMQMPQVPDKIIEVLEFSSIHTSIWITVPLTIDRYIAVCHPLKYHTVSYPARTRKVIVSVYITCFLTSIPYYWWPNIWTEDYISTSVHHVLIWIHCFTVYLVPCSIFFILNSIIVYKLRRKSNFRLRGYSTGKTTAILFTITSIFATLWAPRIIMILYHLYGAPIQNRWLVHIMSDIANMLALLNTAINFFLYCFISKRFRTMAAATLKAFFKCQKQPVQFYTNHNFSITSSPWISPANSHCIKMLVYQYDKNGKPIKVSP
As to the kind of experiment: CalFluxVTN BRET calcium assay, GPR139-transfected HEK293T/17 cells. Format: cell-based. The following applies: in words.

For test [2], the system named is MHb neurons. As to the kind of experiment: Live calcium imaging. The class given is cell-based, mouse. As to conditions: in words.
Test [3] has as its system NAc neurons of Pdyn-Cre mice. The class given is cell-based, mouse. As to conditions: 10 μM JNJ-3792165; in words.
Test [4] relates to GPR139-SmBit / β-arrestin1. In words: NanoBiT β-arrestin1 recruitment assay. The class given is cell-based, human.
The test system of test [5] is GPR139-SmBit / β-arrestin2. As to the kind of experiment: NanoBiT β-arrestin2 recruitment assay. Format: cell-based, human.
Test [6] deals with GPR139 / Gα11. In words: G protein BRET assay, Gα11 activation. The class given is cell-based, human. As to conditions: in words; for GPR139 coupling activity with Gα11: 10 µM.
In test [7] the test system is MHb neurons. The class given is cell-based, mouse.
Test [8] addresses T1, GPR139. The class given is binding. As to conditions: in words.
In test [9] the test system is GPR139 / GαoA. In words: G protein BRET assay, GαoA activation. Format: cell-based, human. As to conditions: 10 µM; in words.
The subject of test [10] is HiBit-GPR139. As to the kind of experiment: HiBiT-GPR139 surface abundance / internalization assay, HEK293T/17 cells. As to conditions: 40 μM Dyngo-4a, 10 μM PitStop 2, 4 mM MβCD applied 15 min before; 40 μM Dyn A13; in words.

In the case of `Cc1cccc(NC(=O)c2cc(C)n(Cc3c(Cl)cccc3Cl)n2)c1` [JNJ-3792165], the “effect of antagonist on peptide-induced Ca2+ responses” value in test [1] (10 μM JNJ-3792165) is “blocked”. Besides, the “effect on Dyn A17-induced Ca2+ response” value in test [2] was “completely blocked”. Besides, the “effect on jGCaMP7s response to optogenetic stimulation” value in test [3] was “completely abolished”.

For `C[C@H](NC(=O)CNC(=O)c1cccc(Cl)c1)c1ccccc1` [JNJ-63533054], the “β-arrestin 1 recruitment to GPR139” value in test [4] was “did not observe recruitment of β-arrestins”. Besides, the “β-arrestin 2 recruitment to GPR139” value in [5] was “did not observe recruitment of β-arrestins”.

Turning to `C=CCN1CC[C@]23c4c5ccc(O)c4O[C@H]2C(=O)CC[C@@]3(O)[C@H]1C5` [naloxone], the “block of G protein activation by GPR139” value in [6] (100 µM Naloxone, 5 µM Dyn A17) is reported as “did not block G protein activation by GPR139”. The “effect on Dyn A17 inhibition of neuronal firing” value in test [7] is “blocked”.

As for “L-enk: inactive Leu-enkephalin as a negative control”, the “competition with [3H]-JNJ-63533054 binding” value in test [8] is “no competition”. For the same molecule, the “GPR139 coupling activity with GαoA” value in test [9] was “Neither did we observe G protein activation”. In test [6], the “GPR139 coupling activity with Gα11” value is on record as “Neither did we observe G protein activation”.

Regarding “adrenocorticotropic hormone (SYSMEHFRWGKPVGKKRRPVKVYPNGAEDESAEAFPLEF; Corticotropin; UniProt P01189 138-176, looked up) [ACTH]”, in test [1] (10 μM, 3 independent experiments), the “CalFluxVTN signal compared to control cells not expressing GPR139” value was “significant signals”. Also, the “competition with [3H]-JNJ-63533054 binding” value in test [8] is on record as “only modest binding”. Besides, in [9], the “GPR139 coupling activity with GαoA” value was “did not show any significant coupling activity”. For the same molecule, the “GPR139 coupling activity with Gα11” value in [6] was “did not show any significant coupling activity”.

Consider methyl-beta-cyclodextrin [MβCD], for which the “effect on Dyn A13-mediated GPR139 internalization” value in test [10] is reported as “had no effect”.

In the case of α-MSH, in [9], the “GPR139 coupling activity with GαoA” value is “did not show any significant coupling activity”. The “GPR139 coupling activity with Gα11” value in test [6] is “did not show any significant coupling activity”.
